Measurements taken from publication PMC6790694, “Selective Modification of Ribosomally Synthesized and Post‐Translationally Modified Peptides (RiPPs) through Diels–Alder Cycloadditions on Dehydroalanine Residues” (Chemistry (Weinheim an Der Bergstrasse, Germany), 2019).
Values after ≈ are worked out from the molar mass of the structure shown.

Tests used:
E. faecalis (ATCC29212) = experiment: MIC assay, broth microdilution, E. faecalis; assay type: cell-based, Enterococcus faecalis; details: supplement table SI-21; E. faecalis LMG 08222 (ATCC29212); broth microdilution in CAMHB + 3 % v/v lysed horse blood, 37 °C, 20 h; tested three times in triplicates
Protocol: (§1) Moreover, variations in activity towards both strains and between the different site‐ and endo/exo isomers remained limited to a factor of 4. The activity of 3 also very closely resembles that of thiostrepton, showing that even removing part of the tail region has little effect on its activity.
(§2) Biological Activity Assays
(§3) Preparation of antimicrobial agents
(§4) Thiostrepton and its variants were dissolved and diluted in DMSO to a concentration of 640 µg/ml, and stored at -20 °C. Before use, they were diluted 20 fold in Mueller Hinton Broth 2 (CAMHB; cation-adjusted, Sigma-Aldrich).
(§5) Dilution of the thiostrepton compounds in CAMHB was done in 50 % volume steps to prevent precipitation.
(§6) Vancomycin for the quality controls was dissolved in MQ to a concentration of 256 mg/ml and stored at -20 °C.
(§7) It was diluted in CAMHB to a final concentration of 256 µg/ml before use.
(§8) Strains and growth conditions
(§9) The MIC values of thiostrepton and its variants were determined for Staphylococcus aureus LMG 10147 […]
(§10) from glycerol stocks on LB (Formedium™) and GM17 (Difco™) plates respectively. […]
(§11) Well 11, lacking the test compound, functions as a growth control and well 12 as a sterility control. […] To ensure MIC data reliability, MIC values for vancomycin were determined for every series of tests performed, as described […]

S. aureus (ATCC29213) = experiment: MIC assay, broth microdilution, S. aureus; assay type: cell-based, Staphylococcus aureus; details: supplement table SI-21; S. aureus LMG 10147 (ATCC29213); broth microdilution in CAMHB, 37 °C, 20 h; tested three times in triplicates
Protocol: as §1, §2, §3, §4, §5, §6, §7, §8, §9, §10, §11

## C=C(NC(=O)C(=C)NC(=O)c1csc(C2=N[C@@H]3c4csc(n4)[C@H]4NC(=O)c5csc(n5)[C@H]([C@](C)(O)[C@@H](C)O)NC(=O)[C@H]5CSC(=N5)/C(=C/C)NC(=O)[C@H]([C@@H](C)O)NC(=O)c5csc(n5)[C@]3(CC2)NC(=O)[C@H](C)NC(=O)C(=C)NC(=O)[C@H](C)NC(=O)[C@H]([C@@H](C)CC)N[C@@H]2C=Cc3c([C@H](C)O)cc(nc3[C@H]2O)C(=O)O[C@@H]4C)n1)C(N)=O [Thiostrepton, thiostrepton]
E. faecalis (ATCC29212)
  MIC against E. faecalis (VSE): 0.5 µg/mL
S. aureus (ATCC29213)
  MIC against S. aureus (MSSA): 0.5 µg/mL (≈ 0.3 µM)
